Results on 6 molecules are retold here after patent US10201559B2, “Compositions of selenoorganic compounds and methods of use thereof” (Alltech, Inc., priority 2014, dated 2019).

Read-outs that look alike come from different tables or passages of the source. Square brackets hold non-standard residues; d marks the D form. Peptide text beside a SMILES is read from it. Sec = N[C@@H](C[SeH])C(=O)O

The subject of series [1] is IMR-32 cells. Kind of series: Cell viability assay, IMR-32. The series is classed as cell-based, human. The procedure: (§1) Cell viability in cultured cells was determined using Promega's CellTiter96® AQueous One Solution Cell Proliferation Assay kits, according to the Manufacturer's protocol. In brief, equal number of C2C12 (1×10^4 cells/well), AML-12 (1×10^4 cells/well) and IMR-32 (2×10^4 cells/well) were seeded on 96-well clear plates (VWR) and treated with vehicle or compounds for 24, […] and/or 72 hr. Then, cultured cells were incubated with AQueous One solution (100 ul/per well) at 37° C. for 1 hr, and the absorbance of OD490 nm in each sample was determined by the Bio-Tek microplate reader. Cell viability in culture cells were determined by the subtraction of OD490 nm in cultured cells with the OD490 nm in plain culture media (without seeding of cells). Eight samples per each treatment were examined for the above analysis. Data are presented as Mean±sem of eight samples.

Series [2] has as its system AML-12 cells. In words: Cell viability assay, AML-12. The series is classed as cell-based, mouse. As for the experimental part: as §1
Series [3] concerns C2C12 cells. Kind of series: Quantitative analysis of mitochondrial potential in C2C12 cells. Type of series: cell-based, mouse. The note with it: all concentrations. The procedure:
For C2C12 cells, equal number of cells (1×10^4) were seeded on Corning 96-well clear-bottom and dark-wall cell culture plates (VWR), cultured in 10% FBS DMEM media for 24 hr., and then treated with vehicle (sterilized water), compound C and D and their sulfur analogs for 24 and 48 hrs. These vehicle- or compound-treated cells were rinsed twice with PBS, incubated with Mitotracker Orange fluorescence dye at 37° C. for 30 min, and then replaced with PBS. Mitotracker Orange fluorescence intensities (mitochondrial potential) in these living cells were determined by a Bio-TeK Synergy HT Multi-Mode Fluorescence Microplate Reader (Winooski, Vt.). Eight samples per each treatment were examined for the above analysis, and data are presented as mean±sem of eight samples.

The subject of series [4] is Adult rat brain ficoll purified mitochondria. Kind of series: Mitochondrial bioenergetics screen (Seahorse OCR) on isolated rat brain mitochondria. Type of series: biochemical. The note with it: 500 ppb, 30 min at 37° C. From the text:
A water soluble extract was obtained from selenized yeast. […] We reasoned that these selenium species would be the first to be liberated/digested from selenized yeast in its passage through the intestinal tract. […] Because we were primarily interested in the potential effects of these selenium species on mitochondrial bioenergetics, it was decided to test these selenium molecules directly using mitochondria.
Selenium concentration ranges low (50 ppb), mid (500 ppb) and high (1 ppm) were initially tested as a possible range for the compounds. […] Adult rat brain ficoll purified mitochondria were incubated with the 9 compounds for 30 min at 37° C. prior to being loading into the Seahorse Biosciences flux analyzer in triplicate. We measured OCR (Oxygen Consumption Rates) parameters in three respiratory states including ATP synthesis (State III), Complex I dependent (NADH-driven) Maximum Respiratory Capacity (State VFCCP) and Complex II (FADH-driven) dependent Maximum Respiratory Capacity (State Vsucc).

In series [5] the test system is IMR-32 cells. In words: Quantitative analysis of mitochondrial potential in IMR-32 cells. The note with it: 6 hr, compared to control. The series is classed as cell-based, human. As for the experimental part:
Similar to the above studies on AML-12 cells, the mitochondrial potential per cell in living IMR-32 cells was determined using the Bio-TeK Synergy HT Multi-Mode fluorescence microplate reader with the following modifications. To improve the attachment of IMR-32 cells to culture dishes, cell culture plates were precoated with 0.1% gelatin (Sigma, St. Louis, Mo.). 2×10^4 cells per a 96-well were seeded on gelatinized 96-well plates for the above studies. To reduce the cell dislodgment, Mitotracker orange and Hoechst 33342 fluorescent dyes (diluted in culture media) were directly added to each well after vehicle- or compound-treatments. After dye incubation, cell culture media were carefully replaced with 1× PBS for the quantitation analysis of fluorescence on the microplate reader. Eight samples per each treatment were examined for the above analysis, and the experiments were repeated at least five times. Data are presented as mean±sem of eight samples.

The subject of series [6] is HEK293T cells. In words: Fluorescence analysis of mitochondrial potential in HEK293T cells. Type of series: cell-based, human. The settings on record: dose not stated. As for the experimental part: HEK293T cells were cultured in 8-chamber glass slides (1×10^4 cells/chamber) for 24 hours, and then treated with various concentrations of compounds or its respective sulfur analogs (dissolved in sterilized water) for 4.5 hr. These compound-treated cells were rinsed twice with PBS, and incubated with Mitotracker Orange Fluorescence Dye (Invitrogen) at 37° C. for 30 min, and then replaced with fresh PBS according to the Manufacturer's protocol. Then fluorescent signals (mitochondrial potential) in these living cells were recorded using a Zeiss Axio Vert.A1 fluorescence microscope (Thornwood, N.Y.). At least three samples in each treatment group were analyzed under the fluorescent microscope.

For the molecule `Nc1ncnc2c1ncn2[C@@H]1O[C@H](CSCCC(N)C(=O)O)C(O)C1O` (stereo in doubt) [compound I, S-Adenosyl-L-homocysteine, reference compound], the “cell viability (OD490 nm)” value in series [1] (24, 48 and 72 hr) was “slight decrease in viability”; in series [2] (48 hr), “no toxic effects”. In series [3], the mitochondrial potential result is “decreased mitochondrial potential at all concentrations”.
In the case of `C[Se]C[C@H]1O[C@@H](n2cnc3c(N)ncnc32)[C@H](O)[C@@H]1O` [Compound 9, MethylSelenoadenosine], the “mitochondrial potential (bioenergetics, OCR)” value in series [4] is given as “increased mitochondrial potential”.
In the case of `N[C@@H](CCC(=O)O)C(=O)N[C@@H](C[SeH])C(=O)O` [Compound 10, Glutamylselenocysteine] (H-Glu-[Sec]-OH), the “mitochondrial potential (bioenergetics, OCR)” value in series [4] is listed as “inhibited mitochondrial potential”.
Consider `CSC[C@H]1O[C@@H](n2cnc3c(N)ncnc32)[C@@H](O)C1O` (some centres unmarked) [compound H, 5′-Methylthioadenosine, reference compound], for which the “cell viability (OD490 nm)” value is listed as “slight decrease in viability” in series [1] (24, 48 and 72 hr); “no toxic effects” in series [2] (48 hr). Also, the MT potential entry in series [5] is recorded as “Increased MT potential”. In addition, the mitochondrial potential result in series [3] is reported as “decreased mitochondrial potential at all concentrations”. In series [6], the “MT potential / mitochondrial activity in kidney cells” value is “incapable of stimulating mitochondrial activity”.
On to `CSC[C@H](NC(=O)CC[C@H](N)C(=O)O)C(=O)O` [compound J, γ-L-glutamyl-methyl-L-cysteine, reference compound], for which the “cell viability (OD490 nm)” value in series [1] is recorded as “slight decrease in viability”; in series [2], “no toxic effects”. Besides, the “MT potential / mitochondrial activity in kidney cells” value in series [6] is recorded as “incapable of stimulating mitochondrial activity”.
With “Leucine-Threonine-Glycine-Selenomethionine-Alanine-Phenylalanine-Arginine [Compound 7]”, in series [4], the “mitochondrial potential (bioenergetics, OCR)” value was “inhibited mitochondrial potential”.
